Test system: IL1B
Assay: Whole blood response to E. coli filtrate with or without polymyxin B
Assay type: cell-based, human
Conditions: polymyxin B added to E. coli filtrate
Text: Figs. 27 through 41 illustrate the use of gene expression panels in early identification and monitoring of infectious disease. These figures plot the response, in expression products of the genes indicated, in whole blood, to the administration of various infectious agents or products associated with infectious agents. In each figure, the gene expression levels are "calibrated", as that term is defined herein, in relation to baseline expression levels determined with respect to the whole blood prior to administration of the relevant infectious agent. In this respect the figures are similar in nature to various figures of our below-referenced patent application WO 01/25473 (for example, Fig. 15 therein). The concentration change is shown ratiometrically, and the baseline level of 1 for a particular gene locus corresponds to an expression level for such locus that is the same, monitored at the relevant time after addition of the infectious agent or other stimulus, as the expression level before addition of the stimulus. Ratiometric changes in concentration are plotted on a logarithmic scale. Bars below the unity line represent decreases in concentration and bars above the unity line represent increases in concentration, the magnitude of each bar indicating the magnitude of the ratio of the change. […]
The responses were monitored at 2, 6, and 24 hours after administration. […]

With polymyxin B the “response of IL1B to E. coli filtrate” value was “did not affect the response”.

From EP2069533B1, “GENE […] FOR IDENTIFICATION, MONITORING AND TREATMENT OF MULTIPLE SCLEROSIS” (Life Technologies Corporation, priority 2006, dated 2008)
